Earlier results as cited in patent US20100087454A1, “MUCOSAL BIOADHESIVE SLOW RELEASE CARRIER FOR DELIVERING ACTIVE PRINCIPLES” (priority 2007, published 2010).

Details: after systemic administration orally; relative to 50% inhibitory dose of herpes simplex-1 virus

In the case of `Nc1nc2c(ncn2COCCO)c(=O)[nH]1` [acyclovir], the “peak acyclovir concentrations in saliva” value is listed as “at the lower end of the 50% inhibitory dose of herpes simplex-1 virus”.
